# Results from patent publication US7964701B2, “Alpha-fetoprotein peptides” (Albany Medical College, priority 2006, dated 2011).
# Where a SMILES comes first, the peptide text is derived from it. Where no end group is shown, it is not given here. [ ]: non-standard residue; d: D form. Hyp = O=C(O)[C@@H]1C[C@@H](O)CN1
# Experiments:
# [1] = test system: E2-stimulated growth of mouse uterus; experiment: Immature mouse uterine growth assay; type: in vivo; conditions: for dose-response profile, inhibition of E2-stimulated uterine growth: FIG. 5; for Inhibition ± S.E, % Immature mouse uterine growth Intraperitoneal / antiestrogenic activity (inhibition of E2-stimulated uterine growth), in words: 1 μg/mouse intraperitoneally; for antiestrogenic activity (inhibition of E2-stimulated uterine growth), in words: Table 3 discussion; for Activity % ± SD (percent growth inhibition of uterus): dose 1 ug/animal
# Source text: The anti-breast cancer activity of the linear and cyclic 8-mer and 9-mer AFP-derived peptides is well-documented using the immature mouse uterine growth assay and the human breast cancer xenograft assay; there is a strong correlation between the results of these two assays. To evaluate peptide-induced inhibition by the peptide of the present invention of estrogen-stimulated proliferation of normal tissue, the immature mouse uterine growth assay was utilized. Briefly, 13-15 day-old Swiss/Webster female mice, 6-8 g in body weight, were distributed into treatment groups of 5 mice per group so that each group contained animals of the same range of body weight. The peptide of the invention was injected i.p., s.c., or p.o. into the mice. One hour later, estradiol (E2) or vehicle control for E2 was injected i.p. Twenty-two hours after the second injection, uteri were harvested, trimmed free of mesenteries, and immediately weighed. The uterine weights were normalized to mouse body weights to compensate for differences in body weight among litters of the same age. Experiments employed a minimum of five mice per group and the mean normalized uterine weight±SE for each group was calculated. Percent growth inhibition in a test group was calculated from normalized uterine wet weights as described below.
# Differences between groups were evaluated, employing the nonparametric Wicoxon ranks sum test. In all cases, growth inhibitions that were greater than 25% were significant at P≦0.05.
# In other experiments, peptide analogs comprising the sequences TOVN SEQ ID NO.: 3) and TPVN (SEQ ID NO.: 2) were assessed for their ability to inhibit E2-stimulated growth of mouse uterus after intraperitoneal and oral administration.
# The ability to inhibit E2-stimulated growth of normal mouse uterus was used as a screening assay for biological activity of AFPep analogs. In general, inhibitory activity≧20% is considered to be biologically significant. Each analog's inhibitory effect on E2-stimulated growth was compared to AFPep (a positive control) and to PGVGQ (SEQ ID NO.: 44)(a negative control). PGVGQ (SEQ ID NO.: 44) (amino acids 478-482 of AFP) is a portion of the primary structure of AFP near to the anti-cancer active site of AFP and is comprised of amino acids (P, V, and G) that are important components of AFPep. A scrambled analog of AFPep was not used because some scrambled peptides retain low biological activity (data not shown). In Table 3, bold letters denote the sequences containing a putative Type I beta-turn, which was postulated to be necessary for antiestrogenic activity.
# [2] = test system: MCF-7 human breast cancer cells; experiment: MCF-7 human tumor xenograft assay in SCID mice; type: in vivo, mouse; conditions: for change in mean tumor volume: FIG. 1
# Method: The peptides of the invention were evaluated for their ability to inhibit tumor growth in a human tumor xenograft assay. Briefly, MCF-7 human breast cancer cells were obtained from ATCC® (Rockville, Md.) and were grown in DMEM supplemented with 5% FCS, 1% non-essential amino acids, 10 ng/ml insulin, 2 mM L-glutamine, 100 units/ml penicillin, and 100 μg/ml streptomycin. MCF-7 cells from culture were solidified into a fibrin clot. The tumor-containing clots were cut into pieces about 1.5 mm in diameter and implanted under the kidney capsule of severe combined immunodeficient (ICR-SCID) mice (Taconic Farms, Germantown, N.Y.) as described in Bennett et al. (Clin. Cancer Res. 1998; 4:2877-84).
# Estrogen supplementation of mice was required for the growth of MCF-7 tumors. Supplementation was accomplished by s.c. implantation of a Silastic tubing capsule containing solid E2 (2 mm in length) inserted on the day of tumor implantation. Tumor size was evaluated during survival laparotomy using a dissecting microscope at the time of tumor implantation and at days 15 and 30 after tumor implantation.
# The T47D human breast cancer cell line is responsive in culture, but it was a less reliable tool when grown as a xenograft tumor in immune deficient mice, having a take-rate of <60% in these mice. However, the MCF-7 human breast cancer cell line has a tumor take-rate of 100% in immune deficient mice and is completely dependent on E2 for growth in these mice (2). Consequently, MCF-7 xenografts were used as a model for ER+human breast cancer to evaluate, in vivo, the effectiveness of TOVNO (SEQ ID NO.: 7) and TOVNOGNEK (SEQ ID NO.: 34) as anticancer agents.
# [3] = test system: T47D human breast cancer cells; conditions: for concentration up to which E2-stimulated T47D growth was inhibited in a concentration dependent manner / activity maintained / dose response profile, inhibition of E2-stimulated T47D cell growth: FIG. 6; for inhibition of E2-stimulated T47D cell growth, in words: Table 3 discussion, 1 μM
# Method: T47D cells were obtained from ATCC® (Rockville, Md.) and grown in culture according recommended protocols. Cells were treated with 1 nM estrogen or 100 nM TOVNO (SEQ ID NO.: 7)/1 nM estrogen. Control cells received 10% estrogen-free media. Cells were treated for seven days.
# A number of AFPep analogs were assessed for in vitro anticancer activity.
# [4] = once a day 10 μg per mouse i.p., FIG. 7b
# [5] = once a day 100 μg by oral gavage, FIG. 7a
molecule,measurement,setting,value
"CC(C)[C@@H]1NC(=O)[C@@H]2C[C@@H](O)CN2C(=O)[C@H]([C@@H](C)O)NC(=O)[C@H](CCCCN)NC(=O)[C@H](CCC(=O)O)NC(=O)[C@H](CC(N)=O)NC(=O)CNC(=O)[C@@H]2C[C@@H](O)CN2C(=O)[C@H](CC(N)=O)NC1=O [cyclo[EKTOVNOGN], reference compound] (cyclo(EKT[Hyp]VN[Hyp]GN))","dose-response profile, inhibition of E2-stimulated uterine growth",[1],attenuated but did not completely eliminate this loss of activity with increasing doses
same,growth of ER+ human MCF-7 breast cancer tumors,[2]; [4],significantly inhibited
same,growth of ER+ human MCF-7 breast cancer tumors,[2]; [5],significantly inhibited
same,concentration up to which E2-stimulated T47D growth was inhibited in a concentration dependent manner / activity maintained,[3],up to 10^−6 M
same,"dose response profile, inhibition of E2-stimulated T47D cell growth",[3],lost activity at higher concentrations
same,"Inhibition ± S.E, % T47D cell proliferation","[3]; peptide 1 μM, E2-stimulated",51 ± 4 %
EMTPV [5-mer outside the pharmacophoric region],"Inhibition ± S.E, % Immature mouse uterine growth Intraperitoneal",[1],5 ± 4%
same,"antiestrogenic activity (inhibition of E2-stimulated uterine growth), in words",[1],little or no antiestrogenic activity
CC(C)[C@H](NC(=O)[C@@H]1C[C@@H](O)CN1C(=O)[C@@H](N)[C@@H](C)O)C(=O)N[C@@H](CC(N)=O)C(N)=O [TOVN] (H-T[Hyp]VN-NH2; N-terminus assumed),"antiestrogenic activity (inhibition of E2-stimulated uterine growth), in words",[1],weak antiestrogenic activity
same,"inhibition of E2-stimulated T47D cell growth, in words",[3],very weak inhibitory activity
EMTOV (EMT[Hyp]V; not fully specified (C-terminus)) [5-mer outside the pharmacophoric region],"Inhibition ± S.E, % Immature mouse uterine growth Intraperitoneal",[1],1 ± 1%
same,"antiestrogenic activity (inhibition of E2-stimulated uterine growth), in words",[1],little or no antiestrogenic activity
CC(C)[C@H](NC(=O)[C@@H]1C[C@@H](O)CN1C(=O)[C@@H](NC(=O)[C@H](CCCCN)NC(=O)[C@@H](N)CCC(=O)O)[C@@H](C)O)C(N)=O [EKTOV] (H-EKT[Hyp]V-NH2; N-terminus assumed),"antiestrogenic activity (inhibition of E2-stimulated uterine growth), in words",[1],little or no antiestrogenic activity
TPVNP,"Inhibition ± S.E, % Immature mouse uterine growth Intraperitoneal",[1],27 ± 1 %
same,Activity % ± SD (percent growth inhibition of uterus),[1],26%
CC(C)[C@H](NC(=O)[C@@H]1C[C@@H](O)CN1C(=O)[C@@H](NC(=O)[C@H](CCCCN)NC(=O)[C@@H](N)CCC(=O)O)[C@@H](C)O)C(=O)N[C@@H](CC(N)=O)C(=O)N1C[C@H](O)C[C@H]1C(=O)NCC(=O)N[C@@H](CC(N)=O)C(N)=O [EKTOVNOGN] (H-EKT[Hyp]VN[Hyp]GN-NH2; N-terminus and C-terminus assumed),"dose-response profile, inhibition of E2-stimulated uterine growth",[1],biphasic dose-response curve
same,"antiestrogenic activity (inhibition of E2-stimulated uterine growth), in words",[1],active at this dose
same,"dose response profile, inhibition of E2-stimulated T47D cell growth",[3],biphasic dose response curve
KTPVNPG,"Inhibition ± S.E, % Immature mouse uterine growth Intraperitoneal",[1],34 ± 2 %
same,"antiestrogenic activity (inhibition of E2-stimulated uterine growth), in words",[1],significantly inhibited E2-stimulated uterine growth
CC(C)[C@H](NC(=O)[C@@H]1C[C@@H](O)CN1C(=O)[C@@H](NC(=O)[C@@H](N)CCCCN)[C@@H](C)O)C(=O)N[C@@H](CC(N)=O)C(=O)N1C[C@H](O)C[C@H]1C(=O)NCC(N)=O [KTOVNOG] (H-KT[Hyp]VN[Hyp]G-NH2; N-terminus and C-terminus assumed),"antiestrogenic activity (inhibition of E2-stimulated uterine growth), in words",[1],significantly inhibited E2-stimulated uterine growth
EKTPV [5-mer outside the pharmacophoric region],"Inhibition ± S.E, % Immature mouse uterine growth Intraperitoneal",[1],0%
same,"antiestrogenic activity (inhibition of E2-stimulated uterine growth), in words",[1],little or no antiestrogenic activity
TPVN,"Inhibition ± S.E, % Immature mouse uterine growth Intraperitoneal",[1],29 ± 1 %
same,Activity % ± SD (percent growth inhibition of uterus),[1],27%
CC(C)[C@H](NC(=O)[C@@H]1C[C@@H](O)CN1C(=O)[C@@H](N)[C@@H](C)O)C(=O)N[C@@H](CC(N)=O)C(=O)N1C[C@H](O)C[C@H]1C(N)=O [TOVNO] (H-T[Hyp]VN[Hyp]-NH2; N-terminus assumed),"dose-response profile, inhibition of E2-stimulated uterine growth",[1],biphasic dose-response curve
same,dose up to which E2-stimulated uterine growth was inhibited in a dose-dependent manner,[1]; FIG. 5c,up to 1 μg/mouse
same,"antiestrogenic activity (inhibition of E2-stimulated uterine growth), in words",[1],significantly inhibited E2-stimulated uterine growth
same,change in mean tumor volume,[2]; 100 μg/day p.o.,significantly decreased the increase in tumor volume
same,change in mean tumor volume,[2]; intraperitoneal 1 μg/day,effective in reducing the increase in mean tumor volume
same,change in mean tumor volume,[2]; intraperitoneal 10 μg/day,effective in reducing the increase in mean tumor volume
same,growth of ER+ human MCF-7 breast cancer tumors,[2]; [4],significantly inhibited
same,growth of ER+ human MCF-7 breast cancer tumors,[2]; [5],significantly inhibited
same,estrogen-stimulated T47D cell proliferation,"[3]; 100 nM peptide/1 nM estrogen, seven days, FIG. 3",T47D cell proliferation was reduced
same,concentration up to which E2-stimulated T47D growth was inhibited in a concentration dependent manner / activity maintained,[3],up to 10^−7 M
same,"dose response profile, inhibition of E2-stimulated T47D cell growth",[3],lost activity with increasing concentration thereafter
same,"inhibition of E2-stimulated T47D cell growth, in words",[3],significantly inhibited
PVNP,"Inhibition ± S.E, % Immature mouse uterine growth Intraperitoneal",[1],6 ± 3%
same,Activity % ± SD (percent growth inhibition of uterus),[1],10%
CC(C)[C@H](NC(=O)[C@@H]1C[C@@H](O)CN1C(=O)[C@@H](N)[C@@H](C)O)C(=O)N[C@@H](CC(N)=O)C(=O)N1C[C@H](O)C[C@H]1C(=O)NCC(=O)N[C@@H](CC(N)=O)C(=O)N[C@@H](CCC(=O)O)C(=O)N[C@@H](CCCCN)C(N)=O [TOVNOGNEK] (H-T[Hyp]VN[Hyp]GNEK-NH2; N-terminus and C-terminus assumed),"dose-response profile, inhibition of E2-stimulated uterine growth",[1],maintained its inhibitory effect at high doses
same,"antiestrogenic activity (inhibition of E2-stimulated uterine growth), in words",[1],significantly inhibited E2-stimulated uterine growth
same,growth of ER+ human MCF-7 breast cancer tumors,[2]; [4],significantly inhibited
same,growth of ER+ human MCF-7 breast cancer tumors,[2]; [5],significantly inhibited
same,concentration up to which E2-stimulated T47D growth was inhibited in a concentration dependent manner / activity maintained,[3],≤ 10^−4 M
same,"dose response profile, inhibition of E2-stimulated T47D cell growth",[3],maintained its activity with increasing concentrations
same,"inhibition of E2-stimulated T47D cell growth, in words",[3],comparable to AFPep
CC(C)[C@H](NC(=O)[C@@H]1C[C@@H](O)CN1)C(=O)N[C@@H](CC(N)=O)C(=O)N1C[C@H](O)C[C@H]1C(N)=O [OVNO] (H-[Hyp]VN[Hyp]-NH2; N-terminus assumed),"antiestrogenic activity (inhibition of E2-stimulated uterine growth), in words",[1],lacked antiestrogenic activity
same,"inhibition of E2-stimulated T47D cell growth, in words",[3],lacked inhibitory activity
MTOVNOG (MT[Hyp]VN[Hyp]G; not fully specified (C-terminus)),"Inhibition ± S.E, % Immature mouse uterine growth Intraperitoneal",[1],28 ± 2 %
same,"antiestrogenic activity (inhibition of E2-stimulated uterine growth), in words",[1],significantly inhibited E2-stimulated uterine growth
CC(C)[C@H](NC(=O)[C@@H]1C[C@@H](O)CN1)C(=O)N[C@@H](CC(N)=O)C(=O)N1C[C@H](O)C[C@H]1C(=O)NCC(N)=O [OVNOG] (H-[Hyp]VN[Hyp]G-NH2; N-terminus assumed),"antiestrogenic activity (inhibition of E2-stimulated uterine growth), in words",[1],weakly inhibited E2-stimulated uterine growth
